In patent US20260022142A1, “MACROCYCLIC IMMUNOMODULATORS” (Bristol-Myers Squibb Company, priority 2022, published 2026):
Numbered stars: 1 amine (or outer) side, 2 acyl side, 3 side chain; on linkers, the order of the positions; unused ones are H or OH. Bridge positions count the residues as written; N and C are the ends. Square brackets hold non-standard residues; d marks the D form. Peptide text beside a SMILES is read from it. * marks the point of attachment. ξ: configuration not given here. Phe(4-COOH) = N[C@@H](Cc1ccc(C(=O)O)cc1)C(=O)O; Bip = N[C@@H](Cc1ccc(-c2ccccc2)cc1)C(=O)O; Phe(3-Me) = Cc1cccc(C[C@H](N)C(=O)O)c1; βAsp = O=C(O)[C@H](CC(=O)[*:2])N[*:1]; NH(CH2)12COOH = O=C(O)CCCCCCCCCCCCN*; PEG6 = NCCOCCOCCOCCOCCOCCOCCC(=O)O; X12 = CC(N)[C@H](N[*:1])C(=O)[*:2]; hArg = N=C(N)NCCCC[C@H](N)C(=O)O; 4Pal = N[C@@H](Cc1ccncc1)C(=O)O; Cha = N[C@@H](CC1CCCCC1)C(=O)O; Cit = NC(=O)NCCC[C@H](N)C(=O)O; Thr(3ξ) = CC(O)[C@H](N)C(=O)O; 12Ado = NCCCCCCCCCCCC(=O)O; Carboxymethyl = O=C(O)C*; Orn = NCCC[C@H](N)C(=O)O; Aun = NCCCCCCCCCCC(=O)O; Dab = NCC[C@H](N)C(=O)O; AEEA = NCCOCCOCC(=O)O

Target: T1, PD-1/PD-L1 interaction (PE-labeled human PD-L1-Ig binding to Jurkat cell line over-expressing human PD-1) (Homo sapiens, UniProt Q15116)
T1 construct: expressed in transfected cells; host or cells: Jurkat
T1 sequence (Q15116 25-288): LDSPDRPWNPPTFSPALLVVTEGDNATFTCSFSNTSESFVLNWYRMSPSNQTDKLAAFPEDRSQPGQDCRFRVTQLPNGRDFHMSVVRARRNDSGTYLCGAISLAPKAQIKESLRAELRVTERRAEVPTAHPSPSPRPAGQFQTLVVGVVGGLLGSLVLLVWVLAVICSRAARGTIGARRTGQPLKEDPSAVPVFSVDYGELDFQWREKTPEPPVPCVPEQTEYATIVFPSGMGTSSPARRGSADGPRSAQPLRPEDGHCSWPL
Experiment: Jurkat-PD-1 Cell Binding High-Content Screening Assay (CBA)
Format: cell-based
Settings: Jurkat cell line over-expressing human PD-1; PE-labeled PD-L1-Ig 20 nM final; read-out: Jurkat hPD1-PDL1 IC50
Procedure, shortened: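 Jurkat cells stably over-expressing human PD-1 were seeded in DMEM with 10% fetal calf serum and pre-incubated with compound for 2 h at 37° C. PE-labeled human PD-L1-Ig was then added at 20 nM final for 1 hour, after which cells were fixed with paraformaldehyde, Hoechst-stained and imaged by high-content microscopy.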

Row | SMILES | IC50
1 | CC(C)C[C@H]1NC(=O)[C@H](CCCN)NC(=O)[C@H](C(C)C)NC(=O)[C@H](Cc2ccc(-c3ccccc3)cc2)NC(=O)[C@H](C(C)C)NC(=O)[C@H](Cc2c[nH]c3ccccc23)NC(=O)[C@H](CC(=O)O)NC(=O)[C@H](Cc2ccc(OCC(=O)O)cc2)NC(=O)[C@H](CCCCNC(=N)N)NC(=O)CSC[C@@H](C(=O)NCC(=O)NCCOCCOCC(=O)NCCCCCCCCCCCCC(=O)O)NC(=O)[C@H](CO)NC(=O)[C@H](C(C)C)NC(=O)[C@H](CC2CCCCC2)NC(=O)[C@H](CCN)NC1=O [Compound 3043] ({CH2CO}-[hArg]Y(Carboxymethyl)DWV[Bip]V[Orn][dL][Dab][Cha]VSCG[AEEA]-{NH(CH2)12COOH}; thioether N-14) | 15.4 nM
2 | CC(C)C[C@H]1NC(=O)[C@H](CCCN)NC(=O)[C@H](CCC(=O)O)NC(=O)[C@H](Cc2ccc(-c3ccccc3)cc2)NC(=O)[C@H](C(C)C)NC(=O)[C@H](Cc2c[nH]c3ccccc23)NC(=O)[C@H](CC(=O)O)NC(=O)[C@H](Cc2ccc(C(=O)O)cc2)NC(=O)[C@H](Cc2ccc(OCC(=O)O)cc2)NC(=O)CSC[C@@H](C(=O)N[C@@H](CC(N)=O)C(=O)NCCOCCOCCOCCOCCOCCOCCC(=O)N[C@@H](CCCN)C(=O)NCCCCCCCCCCCC(=O)O)NC(=O)[C@H](CO)NC(=O)[C@H](C(C)C)NC(=O)[C@H](CC2CCCCC2)NC(=O)[C@H](CCN)NC1=O [Compound 3045] ({CH2CO}-Y(Carboxymethyl)[Phe(4-COOH)]DWV[Bip]E[Orn][dL][Dab][Cha]VSCN[PEG6][Orn][12Ado]-OH; thioether N-14) | 6.4 nM
3 | CC(C)C[C@H]1NC(=O)[C@H](CCCN)NC(=O)[C@H](CCC(=O)O)NC(=O)[C@H](Cc2ccc(-c3ccccc3)cc2)NC(=O)[C@H](C(C)C)NC(=O)[C@H](Cc2c[nH]c3ccccc23)NC(=O)[C@H](CC(=O)O)NC(=O)[C@H](Cc2ccc(C(=O)O)cc2)NC(=O)[C@H](C(C)N)NC(=O)CSC[C@@H](C(=O)N[C@@H](CC(N)=O)C(=O)NCCOCCOCCOCCOCCOCCOCCC(=O)N[C@@H](CCCN)C(=O)NCCCCCCCCCCCC(=O)O)NC(=O)[C@H](CO)NC(=O)[C@H](C(C)C)NC(=O)[C@H](CC2CCCCC2)NC(=O)[C@H](CCN)NC1=O (stereo partly drawn) [Compound 3046] ({CH2CO}-[X12][Phe(4-COOH)]DWV[Bip]E[Orn][dL][Dab][Cha]VSCN[PEG6][Orn][12Ado]-OH; thioether N-14) | 13.1 nM
4 | Cc1cccc(C[C@@H]2NC(=O)[C@H](CC(=O)O)NC(=O)[C@H](Cc3ccc(OCC(=O)O)cc3)NC(=O)[C@H](CCN)NC(=O)CSC[C@@H](C(=O)NCCOCCOCC(=O)NCCCCCCCCCCC(=O)O)NC(=O)[C@H](C(C)O)NC(=O)[C@H](C(C)C)NC(=O)[C@H](CC3CCCCC3)NC(=O)[C@H](CCN)NC(=O)[C@@H](CC(C)C)NC(=O)[C@H](CCCN)NC(=O)[C@H](CCCNC(N)=O)NC(=O)[C@H](Cc3ccc(-c4ccccc4)cc3)NC(=O)[C@H](C(C)C)NC2=O)c1 (stereo partly drawn) [Compound 3047] ({CH2CO}-[Dab]Y(Carboxymethyl)D[Phe(3-Me)]V[Bip][Cit][Orn][dL][Dab][Cha]V[Thr(3ξ)]C[AEEA][Aun]-OH; thioether N-14) | 13.3 nM
5 | CC(C)C[C@H]1NC(=O)[C@H](CCCN)NC(=O)[C@H](C(C)C)NC(=O)[C@H](Cc2ccc(-c3ccccc3)cc2)NC(=O)[C@H](C(C)C)NC(=O)[C@H](Cc2c[nH]c3ccccc23)NC(=O)[C@H](CC(=O)O)NC(=O)[C@H](Cc2ccc(OCC(=O)O)cc2)NC(=O)[C@H](Cc2ccncc2)NC(=O)CSC[C@@H](C(=O)NCCOCCOCC(=O)NCCCCCCCCCCC(=O)O)NC(=O)[C@H](C(C)O)NC(=O)[C@H](C(C)C)NC(=O)[C@H](CC2CCCCC2)NC(=O)[C@H](CCN)NC1=O (stereo partly drawn) [Compound 3048] ({CH2CO}-[4Pal]Y(Carboxymethyl)DWV[Bip]V[Orn][dL][Dab][Cha]V[Thr(3ξ)]C[AEEA][Aun]-OH; thioether N-14) | 23.2 nM
6 | Cc1cccc(C[C@@H]2NC(=O)[C@H](CC(=O)O)NC(=O)[C@H](Cc3ccc(OCC(=O)O)cc3)NC(=O)[C@H](CCCNC(N)=O)NC(=O)CSC[C@@H](C(=O)N[C@@H](CCCN)C(=O)NCCCCCCCCCCC(=O)O)NC(=O)[C@H](CO)NC(=O)[C@H](C(C)C)NC(=O)[C@H](CC3CCCCC3)NC(=O)[C@H](CCN)NC(=O)[C@@H](CC(C)C)NC(=O)[C@H](CCCN)NC(=O)[C@H](C(C)C)NC(=O)[C@H](Cc3ccc(-c4ccccc4)cc3)NC(=O)[C@H](C(C)C)NC2=O)c1 [Compound 3049] ({CH2CO}-[Cit]Y(Carboxymethyl)D[Phe(3-Me)]V[Bip]V[Orn][dL][Dab][Cha]VSC[Orn][Aun]-OH; thioether N-14) | 39.5 nM
7 | CC(C)C[C@H]1NC(=O)[C@H](CCCN)NC(=O)[C@H](C(C)C)NC(=O)[C@H](Cc2ccc(-c3ccccc3)cc2)NC(=O)[C@H](C(C)C)NC(=O)[C@H](Cc2c[nH]c3ccccc23)NC(=O)[C@H](CC(=O)O)NC(=O)[C@H](Cc2ccc(OCC(=O)O)cc2)NC(=O)[C@H](C(C)O)NC(=O)CSC[C@@H](C(=O)NCCOCCOCC(=O)N[C@@H](CCCCN)C(=O)NCCCCCCCCCCC(=O)O)NC(=O)[C@H](C(C)O)NC(=O)[C@H](C(C)C)NC(=O)[C@H](CC2CCCCC2)NC(=O)[C@H](CCN)NC1=O (stereo partly drawn) [Compound 3052] ({CH2CO}-[Thr(3ξ)]Y(Carboxymethyl)DWV[Bip]V[Orn][dL][Dab][Cha]V[Thr(3ξ)]C[AEEA]K[Aun]-OH; thioether N-14) | 10.1 nM
8 | CC(C)C[C@H]1NC(=O)[C@H](CCCN)NC(=O)[C@H](C(C)C)NC(=O)[C@H](Cc2ccc(-c3ccccc3)cc2)NC(=O)[C@H](C(C)C)NC(=O)[C@H](Cc2c[nH]c3ccccc23)NC(=O)[C@H](CC(=O)O)NC(=O)[C@H](Cc2ccc(OCC(=O)O)cc2)NC(=O)[C@H](C(C)O)NC(=O)CSC[C@@H](C(=O)N[C@H](CC(N)=O)C(=O)NCCOCCOCC(=O)NCCCCCCCCCCC(=O)O)NC(=O)[C@H](CO)NC(=O)[C@H](C(C)C)NC(=O)[C@H](CC2CCCCC2)NC(=O)[C@H](CCN)NC1=O (stereo partly drawn) [Compound 3053] ({CH2CO}-[Thr(3ξ)]Y(Carboxymethyl)DWV[Bip]V[Orn][dL][Dab][Cha]VSC[dN][AEEA][Aun]-OH; thioether N-14) | 8.8 nM
9 | CC(C)C[C@H]1NC(=O)[C@H](CCCN)NC(=O)[C@H](C(C)C)NC(=O)[C@H](Cc2ccc(-c3ccccc3)cc2)NC(=O)[C@H](C(C)C)NC(=O)[C@H](Cc2c[nH]c3ccccc23)NC(=O)[C@H](CC(=O)O)NC(=O)[C@H](Cc2ccc(OCC(=O)O)cc2)NC(=O)[C@H](Cc2c[nH]cn2)NC(=O)CSC[C@@H](C(=O)N[C@H](C)C(=O)NCCOCCOCC(=O)NCCCCCCCCCCC(=O)O)NC(=O)[C@H](C(C)O)NC(=O)[C@H](C(C)C)NC(=O)[C@H](CC2CCCCC2)NC(=O)[C@H](CCN)NC1=O (stereo partly drawn) [Compound 3054] ({CH2CO}-HY(Carboxymethyl)DWV[Bip]V[Orn][dL][Dab][Cha]V[Thr(3ξ)]C[dA][AEEA][Aun]-OH; thioether N-14) | 14.6 nM
10 | CC(C)C[C@H]1NC(=O)[C@H](CCCN)NC(=O)[C@H](Cc2c[nH]cn2)NC(=O)[C@H](Cc2ccc(-c3ccccc3)cc2)NC(=O)[C@H](C(C)C)NC(=O)[C@H](Cc2c[nH]c3ccccc23)NC(=O)[C@H](CC(=O)O)NC(=O)[C@H](Cc2ccc(OCC(=O)O)cc2)NC(=O)[C@H](C(C)O)NC(=O)CSC[C@@H](C(=O)N[C@@H](CC(=O)NCCOCCOCC(=O)N[C@@H](CCCN)C(=O)NCCCCCCCCCCC(=O)O)C(=O)O)NC(=O)[C@H](CO)NC(=O)[C@H](C(C)C)NC(=O)[C@H](CC2CCCCC2)NC(=O)[C@H](CCN)NC1=O (stereo partly drawn) [Compound 3056] ({CH2CO}-[Thr(3ξ)]Y(Carboxymethyl)DWV[Bip]H[Orn][dL][Dab][Cha]VSC[βAsp][AEEA][Orn][Aun]-OH; thioether N-14) | 17.7 nM
